How the values were obtained:
Assay in all cases: normalised response (% of control), CellTox Green; higher = less cell death (100 = DMSO, 0 = benzethonium chloride kill control)
Settings in all cases: incubation time: 72 h
[1] = system: BT-474
How it was run: (§1)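 Each entry is the normalised signal at a single concentration within a series. The series comprised 5 concentrations in 10-fold steps over a compound-specific 10,000-fold range, placed in 384-well plates into which breast cancer cell lines were seeded as 20 µl suspension and incubated 72 h. CellTox Green (485/520 nm) fluorescence and then CellTiter-Glo luminescence were read, with signals normalised per plate to 0.1 % DMSO (100) and a positive kill control (0).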

[2] = system: BT-549
How it was run: as §1

[3] = system: CAL-120
How it was run: as §1

[4] = system: CAL-148
How it was run: as §1

[5] = system: CAL-85-1
How it was run: as §1

[6] = system: DU-4475
How it was run: as §1

[7] = system: HCC1599
How it was run: as §1

[8] = system: HCC1937
How it was run: as §1

[9] = system: MCF-10A
How it was run: as §1

[10] = system: MDA-MB-231
How it was run: as §1

[11] = system: MDA-MB-436
How it was run: as §1

[12] = system: MDA-MB-453
How it was run: as §1

[13] = system: MDA-MB-468
How it was run: as §1

[14] = system: MFM-223
How it was run: as §1

[15] = system: HCC1143
How it was run: as §1

[16] = system: HDQ-P1
How it was run: as §1

[17] = system: Hs578T
How it was run: as §1

Row | Compound | normalised response [1] [%] | normalised response [2] [%] | normalised response [3] [%] | normalised response [4] [%] | normalised response [5] [%] | normalised response [6] [%] | normalised response [7] [%] | normalised response [8] [%] | normalised response [9] [%] | normalised response [10] [%] | normalised response [11] [%] | normalised response [12] [%] | normalised response [13] [%] | normalised response [14] [%] | normalised response [15] [%] | normalised response [16] [%] | normalised response [17] [%]
1 | Cc1ccc(C(=O)N(CCCN)[C@@H](c2oc3cc(Cl)ccc3c(=O)c2Cc2ccccc2)C(C)C)cc1 (100 nM) | 102 | 91.1 | 98.8 | 106 | 99.9 | 95.1 | 99.7 | 84.6 | 80 | 87.5 | 105 | 93.5 | 59.9 | 90.5 | – | – | –
2 | Cn1c(CCCC(=O)O)nc2cc(N(CCCl)CCCl)ccc21 [Bendamustine] (1000 nM) | 103 | 119 | 99.9 | 101 | 101 | 103 | 101 | 119 | 67.1 | 117 | 81.8 | 104 | 121 | 105 | 84.8 | 95.9 | –
3 | Cn1c(CCCC(=O)O)nc2cc(N(CCCl)CCCl)ccc21 [Bendamustine] (10000 nM) | 101 | 118 | 99.4 | 92.6 | 84.3 | 103 | 111 | 90.7 | 95.4 | – | 114 | 101 | – | 96.5 | 129 | – | –
4 | C=C(c1ccc(C(=O)O)cc1)c1cc2c(cc1C)C(C)(C)CCC2(C)C [Bexarotene] (1000 nM) | 99.1 | 98.8 | 99.6 | 75.7 | 95.7 | 99.3 | 107 | 94.8 | 85 | 114 | 98.4 | 84.4 | 111 | 103 | 83.9 | 95.3 | –
5 | C=C(c1ccc(C(=O)O)cc1)c1cc2c(cc1C)C(C)(C)CCC2(C)C [Bexarotene] (10000 nM) | 97.8 | 89.8 | 100 | 97.9 | 79.7 | 101 | 108 | 105 | 93.8 | 108 | 78.6 | 98.4 | 121 | 74.1 | 114 | 110 | –
6 | COc1cc2nccc(Oc3ccc(NC(=O)C4(C(=O)Nc5ccc(F)cc5)CC4)cc3)c2cc1OC [Cabozantinib] (100 nM) | 100 | 101 | 98.2 | 102 | 106 | 97.5 | 92.3 | 120 | 88.3 | 103 | – | 99.4 | 136 | 96.3 | – | 91.5 | 102
7 | COc1cc2nccc(Oc3ccc(NC(=O)C4(C(=O)Nc5ccc(F)cc5)CC4)cc3)c2cc1OC [Cabozantinib] (1000 nM) | 98.4 | 105 | 98.6 | 96.9 | 104 | 96.9 | 94.5 | 102 | – | 97.1 | 87.1 | 101 | 158 | 93.8 | 108 | 65.3 | 70.1

From the supplement of paper PMC4862054
